In experiment [1] the target is T1, SIRT1 (Homo sapiens, UniProt Q96EB6).
T1 sequence (Q96EB6 1-747): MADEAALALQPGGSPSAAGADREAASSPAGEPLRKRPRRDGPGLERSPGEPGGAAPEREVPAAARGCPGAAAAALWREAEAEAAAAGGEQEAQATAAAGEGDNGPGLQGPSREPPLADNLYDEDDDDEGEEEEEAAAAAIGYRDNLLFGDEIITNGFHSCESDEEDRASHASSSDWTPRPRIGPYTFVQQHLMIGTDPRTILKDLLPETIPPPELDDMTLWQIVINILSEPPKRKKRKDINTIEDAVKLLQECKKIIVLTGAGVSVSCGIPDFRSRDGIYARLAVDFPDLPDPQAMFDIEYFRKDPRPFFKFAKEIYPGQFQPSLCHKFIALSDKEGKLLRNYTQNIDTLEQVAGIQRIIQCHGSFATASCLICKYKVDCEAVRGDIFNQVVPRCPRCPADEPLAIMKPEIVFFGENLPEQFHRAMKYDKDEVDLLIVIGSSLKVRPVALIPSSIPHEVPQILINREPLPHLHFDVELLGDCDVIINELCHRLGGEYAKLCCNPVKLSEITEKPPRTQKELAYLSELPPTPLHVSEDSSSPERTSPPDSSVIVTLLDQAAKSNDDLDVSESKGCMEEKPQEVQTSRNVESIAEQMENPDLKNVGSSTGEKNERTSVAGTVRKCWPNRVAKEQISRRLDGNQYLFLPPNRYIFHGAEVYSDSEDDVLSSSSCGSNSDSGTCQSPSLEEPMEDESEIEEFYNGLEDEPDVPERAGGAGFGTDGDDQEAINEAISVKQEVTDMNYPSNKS
Kind of experiment: TAMRA based mass spectrometry assay of SIRT1 activity. In kind it is biochemical. The conditions noted are these: TAMRA assay; for TAMRA EC1.5 (μM): concentration giving 150% activation of SIRT1; for Emax: percent maximum fold activation, read-out: TAMRA % Fold Act. Put shortly: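 Deacetylation of a biotinylated, TAMRA-tagged p53-based peptide (0.5 μM) by 10 nM His-tagged SIRT1 with 120 μM βNAD+, 25 °C for 25 min, pH 8 Tris-acetate buffer, across a compound concentration range. Quenched by formic acid and read by mass spec as product peptide or OAADPR; activity relative to DMSO reactions, nicotinamide defining maximal inhibition.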

Experiment [2] addresses T1, SIRT1. Put plainly: Trp mass spectrometry assay of SIRT1 activity. The conditions noted are these: Trp assay; for Trp EC1.5 (μM): concentration giving 150% activation of SIRT1; for Emax: percent maximum fold activation, read-out: Trp % Fold Act. In kind it is biochemical. Put shortly:
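Activation readout: EC1.5 (concentration raising activity 50% over control) and percent maximum activation, from mass-spec quantitation of OAADPR or deacetylated Trp peptide. Reaction: 0.5 μM acetylated Trp peptide, 120 μM βNAD+, 10 nM bacterially expressed N-His SIRT1, pH 7.5 HEPES buffer with […], 25 min at 25° C.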

A value given as a limit tells only on which side of the number the result lay.

Regarding `Cc1cc(C)nc(C(=O)Nc2cnc3ccc(-c4ccccc4C(F)(F)F)nn23)n1` [Compound 221], on SIRT1 [1], the “TAMRA EC1.5 (μM)” value is given as “A (EC1.5<1 μM)” and the Emax is at least 350%. In addition, on SIRT1 [2], the “Trp EC1.5 (μM)” value is given as “B (EC1.5 1-25 μM)” and the Emax was under 350%.
In the case of `Cc1cc2ncc(C(=O)Nc3ccncc3)n2nc1-c1ccccc1C(F)(F)F` [Compound 223, 7-methyl-N-(pyridin-4-yl)-6-(2-(trifluoromethyl)phenyl)imidazo[1,2-b]pyridazine-3-carboxamide], on SIRT1 [1], the “TAMRA EC1.5 (μM)” value is “B (EC1.5 1-25 μM)” and the Emax was at least 350%. Besides, on SIRT1 [2], the “Trp EC1.5 (μM)” value is “B (EC1.5 1-25 μM)” and the Emax is at least 350%.
For `Cc1cc2ncc(C(=O)Nc3ccccn3)n2nc1-c1ccccc1C(F)(F)F` [Compound 224], on SIRT1 [1], the “TAMRA EC1.5 (μM)” value is recorded as “B (EC1.5 1-25 μM)” and the Emax is at least 350%. At SIRT1 [2], the “Trp EC1.5 (μM)” value was “B (EC1.5 1-25 μM)” and the Emax is at least 350%.
Regarding `Cc1c(-c2ccccc2C(F)(F)F)nn2c(C(=O)Nc3cccc(N4CCOCC4)n3)cnc2c1C` [Compound 227], on SIRT1 [1], the “TAMRA EC1.5 (μM)” value is recorded as “A (EC1.5<1 μM)” and the Emax was at least 350%. In addition, on SIRT1 [2], the “Trp EC1.5 (μM)” value is “B (EC1.5 1-25 μM)” and the Emax was at least 350%.
Take `Cc1cc(C)nc(NC(=O)c2cnc3c(C)c(C)c(-c4ccccc4Cl)nn23)c1` [Compound 230]: on SIRT1 [1], the “TAMRA EC1.5 (μM)” value is “A (EC1.5<1 μM)” and the Emax is at least 350%. Further, at SIRT1 [2], the “Trp EC1.5 (μM)” value is on record as “C (EC1.5>25 μM)” and the Emax was under 350%.
The corresponding values for `Cc1cncc(C(=O)Nc2cnc3ccc(-c4ccccc4C(F)(F)F)nn23)c1` [Compound 231] are “B (EC1.5 1-25 μM)”, at least 350%, “B (EC1.5 1-25 μM)” and under 350%.
The corresponding values for `Cc1ccnc(C(=O)Nc2cnc3ccc(-c4ccccc4C(F)(F)F)nn23)c1` [Compound 233] are “A (EC1.5<1 μM)”, at least 350%, “C (EC1.5>25 μM)” and under 350%.
The corresponding values for `O=C(Nc1cnc2ccc(-c3ccccc3C(F)(F)F)nn12)c1cccc(OC[C@H](O)CO)n1` [Compound 236] are “A (EC1.5<1 μM)”, at least 350%, “A (EC1.5<1 μM)” and at least 350%.
Turning to `Cc1cc(NC(=O)c2cnc3ccc(-c4ccccc4C(F)(F)F)nn23)nc(C)n1` [Compound 238], on SIRT1 [1], the “TAMRA EC1.5 (μM)” value is on record as “A (EC1.5<1 μM)” and the Emax was at least 350%. For the same molecule, on SIRT1 [2], the “Trp EC1.5 (μM)” value is listed as “C (EC1.5>25 μM)” and the Emax is under 350%.
For `O=C(Nc1cccnc1)c1cnn2ccc(-c3ccccc3C(F)(F)F)nc12` [Compound 239] the same measures were “B (EC1.5 1-25 μM)”, at least 350%, “B (EC1.5 1-25 μM)” and at least 350%.
For `Cc1cc(NC(=O)c2cnc3ccc(-c4ccccc4F)nn23)ccn1` [Compound 242], on SIRT1 [1], the “TAMRA EC1.5 (μM)” value is “B (EC1.5 1-25 μM)” and the Emax is under 350%. At SIRT1 [2], the “Trp EC1.5 (μM)” value is recorded as “B (EC1.5 1-25 μM)” and the Emax was under 350%.
As for `COc1cccc(NC(=O)c2cnc3ccc(-c4ccccc4F)nn23)n1` [Compound 244], on SIRT1 [1], the “TAMRA EC1.5 (μM)” value is given as “B (EC1.5 1-25 μM)” and the Emax was under 350%. For the same molecule, on SIRT1 [2], the “Trp EC1.5 (μM)” value is “A (EC1.5<1 μM)” and the Emax is under 350%.
Turning to `O=C(Nc1ccc(CN2CCCC2)cn1)c1cnc2ccc(-c3ccccc3C(F)(F)F)nn12` [Compound 248], on SIRT1 [1], the “TAMRA EC1.5 (μM)” value is “B (EC1.5 1-25 μM)” and the Emax was at least 350%. Besides, on SIRT1 [2], the “Trp EC1.5 (μM)” value is recorded as “B (EC1.5 1-25 μM)” and the Emax is under 350%.
Turning to `O=C(Nc1cnn2ccc(-c3ccccc3C(F)(F)F)nc12)c1ccccn1` [Compound 249], on SIRT1 [1], the “TAMRA EC1.5 (μM)” value is “A (EC1.5<1 μM)” and the Emax was at least 350%. For the same molecule, on SIRT1 [2], the “Trp EC1.5 (μM)” value was “B (EC1.5 1-25 μM)” and the Emax was under 350%.
In the case of `O=C(Nc1cnn2ccc(-c3ccccc3C(F)(F)F)nc12)c1ccncc1` [Compound 251], at SIRT1 [1], the “TAMRA EC1.5 (μM)” value is “C (EC1.5>25 μM)” and the Emax was under 350%. On SIRT1 [2], the “Trp EC1.5 (μM)” value is listed as “C (EC1.5>25 μM)” and the Emax was under 350%.
Regarding `O=C(Nc1cnn2ccc(-c3ccccc3C(F)(F)F)nc12)c1ccncn1` [Compound 254], at SIRT1 [1], the “TAMRA EC1.5 (μM)” value is on record as “B (EC1.5 1-25 μM)” and the Emax was at least 350%. On SIRT1 [2], the “Trp EC1.5 (μM)” value is on record as “C (EC1.5>25 μM)” and the Emax is under 350%.
For `O=C(Nc1cnn2ccc(-c3ccccc3C(F)(F)F)nc12)c1cccc(CN2CCOCC2)n1` [Compound 255] the same measures were “A (EC1.5<1 μM)”, at least 350%, “B (EC1.5 1-25 μM)” and under 350%.
The corresponding values for `Cc1cc(NC(=O)c2cnc3ccc(-c4ccccc4F)nn23)cc(C)n1` [Compound 257] are “A (EC1.5<1 μM)”, under 350%, “B (EC1.5 1-25 μM)” and under 350%.
For `Cc1cc(NC(=O)c2cnc3ccc(-c4ccccc4Cl)nn23)cc(C)n1` [Compound 260] the same measures were “A (EC1.5<1 μM)”, at least 350%, “B (EC1.5 1-25 μM)” and under 350%.
As to `COc1cccc(NC(=O)c2cnc3ccc(-c4ccccc4Cl)nn23)n1` [Compound 261], on SIRT1 [1], the “TAMRA EC1.5 (μM)” value was “A (EC1.5<1 μM)” and the Emax is under 350%. Besides, at SIRT1 [2], the “Trp EC1.5 (μM)” value was “A (EC1.5<1 μM)” and the Emax is under 350%.
In the case of `O=C(Nc1ccc(OCC(O)CO)nc1)c1cnc2ccc(-c3ccccc3C(F)(F)F)nn12` (stereo not shown) [Compound 263], on SIRT1 [1], the “TAMRA EC1.5 (μM)” value is given as “B (EC1.5 1-25 μM)” and the Emax is at least 350%. In addition, at SIRT1 [2], the “Trp EC1.5 (μM)” value is “B (EC1.5 1-25 μM)” and the Emax was under 350%.
On to `O=C(Nc1ncccn1)c1cnn2ccc(-c3ccccc3C(F)(F)F)nc12` [Compound 266, N-(pyrimidin-2-yl)-5-(2-(trifluoromethyl)phenyl)pyrazolo[1,5-a]pyrimidine-3-carboxamide], for which, at SIRT1 [1], the “TAMRA EC1.5 (μM)” value was “B (EC1.5 1-25 μM)” and the Emax is at least 350%. Besides, at SIRT1 [2], the “Trp EC1.5 (μM)” value was “B (EC1.5 1-25 μM)” and the Emax was under 350%.
For `O=C(Nc1cnccn1)c1cnn2ccc(-c3ccccc3C(F)(F)F)nc12` [Compound 267], at SIRT1 [1], the “TAMRA EC1.5 (μM)” value is reported as “A (EC1.5<1 μM)” and the Emax was at least 350%. Besides, on SIRT1 [2], the “Trp EC1.5 (μM)” value was “B (EC1.5 1-25 μM)” and the Emax is under 350%.
The corresponding values for `O=C(Nc1cccc(CN2CCOCC2)n1)c1cnn2ccc(-c3ccccc3C(F)(F)F)nc12` [Compound 269] are “A (EC1.5<1 μM)”, at least 350%, “B (EC1.5 1-25 μM)” and at least 350%.
For the molecule `CC(C)c1csc(C(=O)Nc2cnc3ccc(-c4ccccc4C(F)(F)F)nn23)n1` [Compound 272], on SIRT1 [1], the “TAMRA EC1.5 (μM)” value was “A (EC1.5<1 μM)” and the Emax is at least 350%. Also, on SIRT1 [2], the “Trp EC1.5 (μM)” value is “B (EC1.5 1-25 μM)” and the Emax is under 350%.
Consider `Cc1nc(C(=O)Nc2cnc3ccc(-c4ccccc4C(F)(F)F)nn23)cs1` [Compound 273], for which, on SIRT1 [1], the “TAMRA EC1.5 (μM)” value is given as “A (EC1.5<1 μM)” and the Emax was at least 350%. Moreover, at SIRT1 [2], the “Trp EC1.5 (μM)” value is recorded as “B (EC1.5 1-25 μM)” and the Emax was at least 350%.
As to `Cc1cc(C(=O)Nc2cnc3ccc(-c4ccccc4C(F)(F)F)nn23)nc(C)n1` [Compound 275], at SIRT1 [1], the “TAMRA EC1.5 (μM)” value is given as “A (EC1.5<1 μM)” and the Emax was at least 350%. Further, at SIRT1 [2], the “Trp EC1.5 (μM)” value is on record as “B (EC1.5 1-25 μM)” and the Emax is under 350%.
Take `O=C(Nc1cnc2ccc(-c3ccccc3F)nn12)c1ccccn1` [Compound 279]: at SIRT1 [1], the “TAMRA EC1.5 (μM)” value is on record as “B (EC1.5 1-25 μM)” and the Emax was under 350%. Besides, on SIRT1 [2], the “Trp EC1.5 (μM)” value is listed as “C (EC1.5>25 μM)” and the Emax was under 350%.

For the origin of these results see patent US9957271B2, “Substituted bicyclic aza-heterocycles and analogues as sirtuin modulators” (GlaxoSmithKline, LLC, priority 2012, dated 2018).
